The target of assay [1] is hNurr1_RXRαFL (NURR1/RXRα heterodimer) (Homo sapiens, UniProt P19793+P43354). The assay can be described thus: Transactivation assay in Cos-7 cells, NURR-1-Gal4 / RXRα, luciferase reporter. Format: cell-based. Particulars: for Emax: COS-7, read-out: hNurr1_RXRαFL Eff (%), efficacy in % relative to the reference XCT0135908 at 2·10^−5 M (=100%); for EC50: Cos-7 cells, overnight incubation. On the procedure: (§1) First, the capacity of the compounds according to the invention for acting as an activator of the heterodimers formed by the NURR-1 nuclear receptor and the RXR nuclear receptors was measured by an in vitro assay.
(§2) A transactivation assay was used as a primary screening assay. Cos-7 cells were co-transfected with a plasmid expressing a chimera of the human receptor NURR-1-Gal4, a plasmid expressing the human receptor RXR (RXRα or RXRγ receptor) and a reporter plasmid 5Gal4pGL3-TK-Luc. The transfections were performed by means of a chemical agent (Jet PEI).
(§3) The transfected cells were distributed in 384-well plates and left resting for 24 hours.
(§4) After 24 hours, the culture medium was changed. The products according to the invention were added (final concentration between 10^−4 and 3·10^−10 M) to the culture medium. After overnight incubation, luciferase expression was measured after addition of “SteadyGlo” according to the manufacturer's instructions (Promega).
(§5) 4-[[6-Methyl-2-phenyl-5-(2-prop enyl)-4-pyrimidinyl]amino]-benzoic acid (called XCT0135908, which was described in the article by Wallen-Mackenzie et al. published in Genes & Development 17, pages 3036-3047) at 2·10^−5 M (RXR agonist) was used as reference.
(§6) The levels of induction (designated by “efficiency”) were calculated relative to the baseline activity of each heterodimer. The results were expressed as a percentage of the level of induction relative to the level of induction obtained with the reference (the level of induction of the reference is arbitrarily taken to be 100%).
A general note: Reporter assays use an easily measured gene product as a stand-in for the process of interest.

The target of assay [2] is hNurr1_RXRγFL (NURR1/RXRγ heterodimer) (Homo sapiens, UniProt P43354+P48443). Nature of the assay: Transactivation assay in Cos-7 cells, NURR-1-Gal4 / RXRγ, luciferase reporter. Particulars: for Emax: COS-7, read-out: hNurr1_RXRγFL Eff (%), efficacy in % relative to the reference XCT0135908 at 2·10^−5 M (=100%); for EC50: Cos-7 cells, overnight incubation. The format is cell-based. The method, then:
as §1, §2, §3, §4, §5, §6

Molecules are shown by their SMILES.

Chain of hNurr1_RXRαFL (NURR1/RXRα heterodimer) (P19793 whole entry, the tested form may be a part): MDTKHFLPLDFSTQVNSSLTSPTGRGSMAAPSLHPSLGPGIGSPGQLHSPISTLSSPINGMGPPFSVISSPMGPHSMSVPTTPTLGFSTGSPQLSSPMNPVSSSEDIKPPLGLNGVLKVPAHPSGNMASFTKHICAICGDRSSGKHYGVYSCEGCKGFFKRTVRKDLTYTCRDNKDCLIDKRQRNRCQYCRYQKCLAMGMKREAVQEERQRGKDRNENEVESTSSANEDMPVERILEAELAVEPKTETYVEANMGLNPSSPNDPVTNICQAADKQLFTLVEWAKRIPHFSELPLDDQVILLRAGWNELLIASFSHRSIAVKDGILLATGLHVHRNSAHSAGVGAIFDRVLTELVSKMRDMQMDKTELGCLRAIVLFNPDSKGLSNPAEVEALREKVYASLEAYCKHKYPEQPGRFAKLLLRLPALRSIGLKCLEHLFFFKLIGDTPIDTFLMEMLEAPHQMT
Chain of hNurr1_RXRαFL (NURR1/RXRα heterodimer) (P43354 328-598): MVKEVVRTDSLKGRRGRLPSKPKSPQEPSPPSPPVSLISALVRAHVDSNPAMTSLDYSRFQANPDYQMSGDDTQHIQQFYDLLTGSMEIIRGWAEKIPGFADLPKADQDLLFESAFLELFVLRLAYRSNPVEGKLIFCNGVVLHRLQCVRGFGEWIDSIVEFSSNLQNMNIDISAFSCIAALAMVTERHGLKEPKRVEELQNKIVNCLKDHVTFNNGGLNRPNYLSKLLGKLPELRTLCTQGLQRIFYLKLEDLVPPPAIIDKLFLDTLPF
Chain of hNurr1_RXRγFL (NURR1/RXRγ heterodimer) (P43354 328-598): as above
Chain of hNurr1_RXRγFL (NURR1/RXRγ heterodimer) (P48443 whole entry, the tested form may be a part): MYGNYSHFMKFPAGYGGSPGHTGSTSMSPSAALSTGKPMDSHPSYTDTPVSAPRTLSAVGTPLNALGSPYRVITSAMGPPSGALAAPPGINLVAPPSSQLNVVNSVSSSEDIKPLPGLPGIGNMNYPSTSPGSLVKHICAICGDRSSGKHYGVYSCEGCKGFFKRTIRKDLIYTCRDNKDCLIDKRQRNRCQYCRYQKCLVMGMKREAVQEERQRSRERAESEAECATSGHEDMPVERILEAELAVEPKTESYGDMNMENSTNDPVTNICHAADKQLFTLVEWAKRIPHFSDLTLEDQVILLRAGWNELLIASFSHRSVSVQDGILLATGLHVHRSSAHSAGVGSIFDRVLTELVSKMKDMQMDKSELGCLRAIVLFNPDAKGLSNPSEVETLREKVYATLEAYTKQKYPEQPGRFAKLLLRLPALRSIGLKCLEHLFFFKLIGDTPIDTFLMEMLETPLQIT

As usually defined, the EC50 is the concentration at which the effect is half-maximal. A high value points to weaker potency. With `CCC(C)(C)c1ccc(S(=O)(=O)n2c(Cc3ccc(C(=O)O)cc3)cc3cc(C(F)(F)F)ccc32)cc1` [Example 12, 4-[[1-[[4-(1,1-dimethylpropyl)phenyl]sulfonyl]-5-(trifluoromethyl)-1H-indol-2-yl]methyl]benzoic acid], the Emax in assay [1] was found to be 54%; in assay [2], 45%. The EC50 in assay [1] is 113 nM; in assay [2], 148 nM.

For the molecule `COc1cccc(S(=O)(=O)n2c(Cc3ccc(C(=O)O)cc3)cc3cc(C(F)(F)F)ccc32)c1` [Example 13, 4-[[1-[(3-methoxyphenyl)sulfonyl]-5-(trifluoromethyl)-1H-indol-2-yl]methyl]benzoic acid], the Emax in assay [1] worked out at 69%; in assay [2], 36%. Besides, the EC50 is 207 nM in assay [1] and 528 nM in assay [2].

Turning to `O=C(O)c1ccc(Cc2cc3cc(C(F)(F)F)ccc3n2S(=O)(=O)c2ccc(-c3ccccc3)s2)cc1` [Example 14, 4-[[1-[(5-phenyl-2-thienyl)sulfonyl]-5-(trifluoromethyl)-1H-indol-2-yl]methyl]benzoic acid], the Emax in assay [1] was found to be 69%; in assay [2], 30%. For the same molecule, the values for the EC50 in assay [1] and in assay [2] were 396 nM and 778 nM, respectively.

As to `O=C(O)c1ccc(Cc2cc3cc(C(F)(F)F)ccc3n2S(=O)(=O)c2ccc(F)c(Cl)c2)cc1` [Example 15, 4-[[1-[(3-chloro-4-fluorophenyl)sulfonyl]-5-(trifluoromethyl)-1H-indol-2-yl]methyl]benzoic acid], the Emax in assay [1] is 66%; in assay [2] it was 54%. Moreover, the EC50 in assay [1] came out at 372 nM; in assay [2], 746 nM.

Regarding `O=C(O)c1ccc(Cc2cc3cc(C(F)(F)F)ccc3n2S(=O)(=O)c2ccsc2)cc1` [Example 16, 4-[[1-(3-thienylsulfonyl)-5-(trifluoromethyl)-1H-indol-2-yl]methyl]benzoic acid], in assay [1], the Emax is 66% and the EC50 is 617 nM. Besides, in assay [2], the Emax was found to be 45% and the 50% effective concentration (EC50) came to 628 nM.

Take `Cn1ccc(-c2cccc(S(=O)(=O)n3c(Cc4ccc(C(=O)O)cc4)cc4cc(C(F)(F)F)ccc43)c2)n1` [Example 18, 4-[[1-[[3-(1-methyl-1H-pyrazol-3-yl)phenyl]sulfonyl]-5-(trifluoromethyl)-1H-indol-2-yl]methyl]benzoic acid]: in assay [1], the Emax is 60% and a half-maximal response (EC50) required 407 nM. Further, in assay [2], the Emax came out at 34% and the EC50 was 668 nM.

Take `Cn1nccc1-c1cccc(S(=O)(=O)n2c(Cc3ccc(C(=O)O)cc3)cc3cc(C(F)(F)F)ccc32)c1` [Example 20, 4-[[1-[[3-(1-methyl-1H-pyrazol-5-yl)phenyl]sulfonyl]-5-(trifluoromethyl)-1H-indol-2-yl]methyl]benzoic acid]: in assay [1], the Emax was determined as 54% and a half-maximal effect (EC50) was put at 295 nM. Further, in assay [2], the Emax was determined as 44% and the EC50 is 617 nM.

For `CC(C)(C)c1ccc(S(=O)(=O)n2c(Cc3ccc(C(=O)O)cc3)cc3cc(C(F)(F)F)ccc32)cc1` [Example 21, 4-[[1-[[4-(1,1-dimethylethyl)phenyl]sulfonyl]-5-(trifluoromethyl)-1H-indol-2-yl]methyl]benzoic acid], the figures for the Emax in assay [1] and in assay [2] were 46% and 35%, respectively. Besides, the EC50 in assay [1] worked out at 121 nM; in assay [2], 240 nM.

On to `O=C(O)c1ccc(Cc2cc3cc(C(F)(F)F)ccc3n2S(=O)(=O)c2ccc3c(c2)OCCO3)cc1` [Example 22, 4-[[1-[(2,3-dihydro-1,4-benzodioxin-6-yl)sulfonyl]-5-(trifluoromethyl)-1H-indol-2-yl]methyl]benzoic acid], for which, in assay [1], the Emax was 45% and it took 207 nM to reach a half-maximal effect (EC50). In assay [2], the Emax came to 43% and a half-maximal effect (EC50) was put at 346 nM.

For `O=C(O)c1ccc(Cc2cc3cc(C(F)(F)F)ccc3n2S(=O)(=O)c2ccc3ccccc3c2)cc1` [Example 25, 4-[[1-(2-naphthalenylsulfonyl)-5-(trifluoromethyl)-1H-indol-2-yl]methyl]benzoic acid], in assay [1], the Emax was found to be 47% and the midpoint of the response, the EC50, lay at 496 nM. In assay [2], the Emax worked out at 33% and it took 864 nM to reach a half-maximal effect (EC50).

Turning to `O=C(O)c1ccc(Cc2cc3cc(Cl)ccc3n2S(=O)(=O)c2cccc(C(F)(F)F)c2)cc1` [Example 28, 4-[[5-chloro-1-[[3-(trifluoromethyl)phenyl]sulfonyl]-1H-indol-2-yl]-methyl]benzoic acid], in assay [1], the Emax turned out to be 78% and it took 332 nM to reach a half-maximal effect (EC50). In addition, in assay [2], the Emax came to 67% and the EC50 was 443 nM.

Consider `COC(=O)c1ccc(Cc2cc3cc(Cl)ccc3n2S(=O)(=O)c2ccc(C(C)C)cc2)cc1` [Example 40, 4-[[5-chloro-1-[[4-(1-methylethyl)phenyl]sulfonyl]-1H-indol-2-yl]methyl]benzoic acid, methyl ester], for which, in assay [1], the Emax turned out to be 96% and the 50% effective concentration (EC50) was determined as 560 nM. For the same molecule, in assay [2], the Emax came out at 75% and a half-maximal response (EC50) required 2110 nM.

In the case of `CC(C)c1ccc(S(=O)(=O)n2c(Cc3ccc(C(=O)O)cc3)cc3cc(C(F)(F)F)ccc32)cc1` [Example 43, 4-[[1-[[4-(1-methylethyl)phenyl]sulfonyl]-5-(trifluoromethyl)-1H-indol-2-yl]methyl]benzoic acid], in assay [1], the Emax worked out at 73% and the midpoint of the response, the EC50, lay at 291 nM. For the same molecule, in assay [2], the Emax came to 79% and the EC50 amounted to 616 nM.

In the case of `CN1CCOc2ccc(S(=O)(=O)n3c(Cc4ccc(C(=O)O)cc4)cc4cc(C(F)(F)F)ccc43)cc21` [Example 45, 4-[[1-[(3,4-dihydro-4-methyl-2H-1,4-benzoxazin-6-yl)sulfonyl]-5-(trifluoromethyl)-1H-indol-2-yl]methyl]benzoic acid], the Emax in assay [1] worked out at 70%; in assay [2], 50%. Moreover, the results for the EC50 in assay [1] and in assay [2] were 97 nM and 201 nM, respectively.

`CC(C)c1cccc(S(=O)(=O)n2c(Cc3ccc(C(=O)O)cc3)cc3cc(Cl)ccc32)c1` [Example 51, 4-[[5-chloro-1-[[3-(1-methylethyl)phenyl]sulfonyl]-1H-indol-2-yl]-methyl]benzoic acid]: in assay [1], the Emax came to 74% and a half-maximal effect (EC50) was put at 801 nM. Besides, in assay [2], the Emax was 69% and the EC50 turned out to be 1130 nM.

As for `O=C(O)c1ccc(Cc2cc3cc(C(F)(F)F)ccc3n2S(=O)(=O)c2cccc(C3CC3)c2)cc1` [Example 59, 4-[1-(3-cyclopropyl-benzenesulfonyl)-5-trifluoromethyl-1H-indol-2-ylmethyl]-benzoic acid], in assay [1], the Emax stood at 70% and the EC50 worked out at 274 nM. Further, in assay [2], the Emax was found to be 31% and the half-maximal effective concentration (EC50) was found to be 297 nM.

Turning to `CC(C)(C)c1cccc(S(=O)(=O)n2c(Cc3ccc(C(=O)O)cn3)cc3cc(C(F)(F)F)ccc32)c1` [Example 66], in assay [1], the Emax came to 80% and the EC50 was 71 nM. For the same molecule, in assay [2], the Emax was determined as 79% and the response was half-maximal at 110 nM (EC50).

For the molecule `CC(C)c1ccc(S(=O)(=O)n2c(Cc3ccc(C(=O)O)c(O)c3)cc3cc(C(F)(F)F)ccc32)cc1` [Example 68, 2-hydroxy-4-[[1-[[4-(1-methylethyl)phenyl]sulfonyl]-5-(trifluoromethyl)-1H-indol-2-yl]methyl]-benzoic acid], in assay [1], the Emax turned out to be 51% and a half-maximal response (EC50) required 343 nM. In assay [2], the Emax was determined as 43% and a half-maximal effect (EC50) was put at 553 nM.

(Values after US20120232070A1, “Use of Indole Derivatives as Nurr-1 Activators for the Application Thereof as a Medicament for the Treatment of Parkinson's Disease” (Laboratoires Fournier SA, priority 2009, published 2012).)
